Numbered stars: 1 amine (or outer) side, 2 acyl side, 3 side chain; on linkers, the order of the positions; unused ones are H or OH. Square brackets hold non-standard residues; d marks the D form. Peptide text beside a SMILES is read from it. * marks the point of attachment. ξ: configuration not given here. Gly(1-amidinopiperidin-4-yl) = N=C(N)N1CCC([C@H](N)C(=O)O)CC1; X1 = CC(C)c1oc([C@H](CO)N[*:1])nc1C(=O)[*:2]; Pro(3R-Ph) = O=C(O)[C@H]1NCC[C@@H]1c1ccccc1; Tic = O=C(O)[C@@H]1Cc2ccccc2CN1; Cha = N[C@@H](CC1CCCCC1)C(=O)O; NHPhenethyl = c1ccc(CCN*)cc1; NMe(benzyl) = CN(Cc1ccccc1)*; ξDisc = O=C(O)C1NCc2ccccc21; Nle = CCCC[C@H](N)C(=O)O; NHBn = c1ccc(CN*)cc1
Tests used:
[1] = target: DR4Dw4 (DRA1*0101 DRB1*0401) (Homo sapiens, UniProt P01903+P01911, A100K/A169T/F76Y/I96L/K127E/L162R/M171V/N62H/P40V/Q125Y/R42H/S133A/S149N/S66Y/V115G/V209L/W38E); assay: Competitive binding to MHC-II protein DR4Dw4
Summary of the method: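 Each MHC-II allele incubated with compound 16 hours at room temperature in duplicate; controls lacked compound, or both compound and MHC-II. Complexes captured 2 h at 4 °C, bound biotinylated peptide detected via europium-streptavidin and DELFIA enhancement, time-resolved fluorescence read at ex 340/em 613 (615) nm.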

[2] = target: T1, Priess (DR4Dw4: DRA1*0101 DRB1*0401) cells (Homo sapiens, UniProt P01903+P01911, A100K/A169T/F76Y/I96L/K127E/L162R/M171V/N62H/P40V/Q125Y/R42H/S133A/S149N/S66Y/V115G/V209L/W38E); assay: Competitive binding to MHC II proteins expressed on Priess cells; type: cell-based
T1 construct: MHC II Proteins Expressed on PRIESS and LG2 Cells; endogenous in cells; host or cells: Priess cells
Summary of the method: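 LG2 or Priess cells incubated 4 h at 37° C, 6% CO2 in 1% FCS with 10-fold compound dilutions (series 16 nM-1615 μM) and biotinylated-detectable indicator peptide (16 μM solution added). Lysates captured 2 h at 4° C; bound peptide detected via europium-streptavidin time-resolved fluorescence (ex 340, em 613 nm).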

[3] = Stability of compounds in rat blood plasma; type: in vitro ADME
Summary of the method: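 Compounds at 5 μM final in rat, mouse or human plasma, incubated at 37 °C and sampled at 0, 6 and 24 h. Proteins precipitated with acetonitrile and the supernatant dried and reconstituted in 50% acetonitrile/0.1% TFA. PBS controls run for unstable compounds.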

[4] = target: Cathepsin D (EC 3.4.23.5 from bovine spleen) (Bos taurus, UniProt P80209)

Row | Compound | IC50 [1] [µM] | IC50 [2] [µM] | Stability (Arbitrary units) Rat 6 h [3] [Arbitrary units] | Stability (Arbitrary units) Rat 24 h [3] [Arbitrary units] | Stability (Arbitrary units) Cath D 4 h [4] [Arbitrary units] | binding to MHC class II protein expressed on the surface of Priess cells ([2]; compared to the Arg-containing equivalent) | stability (arbitrary units) in rat plasma ([3]; after 24 hours, compared to the Arg-containing equivalent)
1 | CCCC[C@H](NC(=O)C1c2ccccc2CN1C(=O)[C@@H](NC(=O)[C@H](CC1CCCCC1)NC(C)=O)C1CCN(C(=N)N)CC1)C(=O)N1CC[C@H](c2ccccc2)[C@H]1C(=O)N[C@@H](CO)c1nc(C(=O)N(C)C)c(C(C)C)o1 (stereo partly drawn) [Compound P81-1] (Ac-[Cha][Gly(1-amidinopiperidin-4-yl)][ξDisc][Nle][Pro(3R-Ph)][X1]-NMe2) | 0.26 | 3.4 | 151 | 112 | 106 |  | 
2 | CSCC[C@H](NC(=O)[C@@H]1Cc2ccccc2CN1C(=O)[C@H](CCCNC(=N)N)NC(=O)[C@H](CC1CCCCC1)NC(C)=O)C(N)=O [Compound P1, Ac-Cha-Arg-Tic-Met-NH2] (Ac-[Cha]R[Tic]M-NH2) | 1.6 | 11 | 11 | 0 | 102 |  | 
3 | CSCC[C@H](NC(=O)C1c2ccccc2CN1C(=O)[C@@H](NC(=O)[C@H](CC1CCCCC1)NC(C)=O)C1CCN(C(=N)N)CC1)C(N)=O (stereo partly drawn) [Compound P66-1, Ac-Cha-Gpg-Disc-Met-NH2] (Ac-[Cha][Gly(1-amidinopiperidin-4-yl)][ξDisc]M-NH2) | 0.29 | 7.8 | 138 | 81 | 101 |  | 
4 | CCCC[C@H](NC(=O)[C@@H]1Cc2ccccc2CN1C(=O)[C@@H](NC(=O)[C@H](CC1CCCCC1)NC(C)=O)C1CCN(C(=N)N)CC1)C(=O)N(C)Cc1ccccc1 [Compound P74, Ac-Cha-Gpg-Tic-Nle-N(Me)Bn] (Ac-[Cha][Gly(1-amidinopiperidin-4-yl)][Tic][Nle]-{NMe(benzyl)}) | 3.4 | 9.2 | 91 | 71 | 104 | Improved binding | 
5 | CSCC[C@H](NC(=O)C1c2ccccc2CN1C(=O)[C@H](CCCNC(=N)N)NC(=O)[C@H](CC1CCCCC1)NC(C)=O)C(N)=O (stereo partly drawn) [Compound P12-1, Ac-Cha-Arg-Disc-Met-NH2] (Ac-[Cha]R[ξDisc]M-NH2) | 0.37 | 6.7 | 67 | 10 | 103 |  | 
6 | CCCC[C@H](NC(=O)[C@@H]1Cc2ccccc2CN1C(=O)[C@@H](NC(=O)[C@H](CC1CCCCC1)NC(C)=O)C1CCN(C(=N)N)CC1)C(=O)NCCc1ccccc1 [Compound P69, Ac-Cha-Gpg-Tic-Nle-N(H)CH2CH2Ph] (Ac-[Cha][Gly(1-amidinopiperidin-4-yl)][Tic][Nle]-NHPhenethyl) | 3.6 | 11 | 41 | 42 | 100 |  | improved stability
7 | CCCC[C@H](NC(=O)[C@@H]1Cc2ccccc2CN1C(=O)[C@@H](NC(=O)[C@H](CC1CCCCC1)NC(C)=O)C1CCN(C(=N)N)CC1)C(=O)NCc1ccccc1 [Compound P68, Ac-Cha-Gpg-Tic-Nle-N(H)Bn] (Ac-[Cha][Gly(1-amidinopiperidin-4-yl)][Tic][Nle]-NHBn) | 2.1 | 12 | 7 | 0 | 105 |  | 

From patent US7629318B2, “Immunosuppressant compounds, methods and uses related thereto” (priority 2002, dated 2009)
